Measurements from patent KR20140041632A, “제주조릿대 잎 추출물 또는 그로부터 분리된 파라-쿠마르산을 이용한 비만 및 지방간 개선제 조성물” (제주대학교 산학협력단, priority 2014, dated 2014).
Entries after “also recorded” stand apart in the source; their conditions may differ.

Experiments:
[1] = tested on: 3T3-L1 preadipocytes [3T3-L1 전구지방세포]; assay: Inhibition of differentiation of 3T3-L1 preadipocytes into adipocytes (Oil Red O); type: cell-based; conditions: 3T3-L1, 100uM, treatment Day4 ~ Day8, Oil Red O 540nm; Fig. 11
LKB1 = assay: Western blot of p-LKB1 in differentiated 3T3-L1 adipocytes; type: cell-based; conditions: Fig. 12
AMPK [2] = assay: Western blot of p-AMPK in differentiated 3T3-L1 adipocytes; type: cell-based; conditions: Fig. 12
ACC [3] = assay: Western blot of p-ACC in differentiated 3T3-L1 adipocytes; type: cell-based; conditions: Fig. 12
AMPK [4] = assay: Western blot of p-AMPK in differentiated L6 cells; type: cell-based, rat; conditions: 48 h, Fig. 13
ACC [5] = assay: Western blot of p-ACC in differentiated L6 cells; type: cell-based, rat; conditions: 48 h, Fig. 13
PPARα = assay: Western blot of PPARα in differentiated L6 cells; type: cell-based, rat; conditions: 48 h, vs control, Fig. 14
AMPK [6] = assay: Western blot of p-AMPK in HepG2 cells with induced fat accumulation; type: cell-based; conditions: HepG2, oleic acid 600uM, 24 h; Fig. 15
ACC [7] = assay: Western blot of p-ACC in HepG2 cells with induced fat accumulation; type: cell-based; conditions: HepG2, oleic acid 600uM, 24 h; Fig. 15
[8] = several concentrations, vs control

Structure (SMILES): O=C(O)/C=C/c1ccc(O)cc1 [p-쿠마르산, p-coumaric acid]
- TG content / triglyceride accumulation [1]: 유의적으로 감소; also recorded: 중성지방의 축적을 억제
- LKB1 phosphorylation (LKB1): 증가 and 농도 의존적으로 LKB1의 인산화, AMPK의 인산화 및 ACC의 인산화를 증가시킴
- AMPK phosphorylation (AMPK [2]): 증가 and 농도 의존적으로 LKB1의 인산화, AMPK의 인산화 및 ACC의 인산화를 증가시킴
- ACC phosphorylation (ACC [3]): 증가 and 농도 의존적으로 LKB1의 인산화, AMPK의 인산화 및 ACC의 인산화를 증가시킴
- AMPK phosphorylation at highest concentration (AMPK [4]; 50uM): 현저한 증가
- AMPK phosphorylation (AMPK [4]; [8]): 농도의존적으로 증가; also recorded: 농도 의존적으로 AMPK 및 ACC의 인산화를 증가시킴
- ACC phosphorylation at highest concentration (ACC [5]; 50uM): 현저한 증가
- ACC phosphorylation (ACC [5]; [8]): 농도의존적으로 증가; also recorded: 농도 의존적으로 AMPK 및 ACC의 인산화를 증가시킴
- PPARα expression (PPARα): 증가 and 농도 의존적으로 PPARα 발현을 증가시킴
- AMPK phosphorylation (AMPK [6]): 농도의존적으로 증가; also recorded: 농도 의존적으로 AMPK 및 ACC의 인산화를 증가시킴
- ACC phosphorylation (ACC [7]): 농도의존적으로 증가; also recorded: 농도 의존적으로 AMPK 및 ACC의 인산화를 증가시킴
